According to patent publication US20060063785A1, “Substituted pyrazolo[1,5-a] pyrimidines and process for making same” (priority 2004, published 2006):
Where two headings read alike, the source gives them in different places.

What was measured:
LoVo Colon cell line = test: Cytotoxicity assay using LoVo colon cell line (SRB, IC50); format: cell-based; conditions: read-out: Inhibition of LoVo
Experimental: Cytotoxicity Assay Using LoVo Colon Cell Line: • 1. LoVo Colon cell lines was cultured in RPMI 1640 medium (Gibco/Invitrogen Life Sciences) supplemented with 10% fetal bovine serum (FBS, Gibco) and 50 μg/ml gentamicin (Gibco). Cells were maintained at 37° C. under 7% CO2. • 2. Cells were seeded in 96-well microtiter plates (Corning/Costar) in a volume of 0.15 ml of growth medium (4000 cells/well). Plates were incubated at 37° C. overnight (18-24 hours). • 3. Serial dilutions of the test agent were added to each well. Dilutions were prepared in growth medium. One of two dose ranges was used: 5 pM to 20 μM or […] to 10 μg/ml. Cells were incubated with the test compounds for 4 days at 37° C. • 4. Surviving cells were processed using the SRB asay, as described above.
5. The drug concentration that inhibits cell proliferation by 50% relative to untreated controls (IC50) was determined from cytotoxicity curves using the LSW Toolbox graphing application.

[1] = system: 80S14 (p21-deficient) cells; test: Determination of selectivity of compounds for p21-/- cells: IC50 in 80S14 cells (SRB); format: cell-based, human
Experimental: • 1. 80S14 (p21-deficient) cells were cultured in RPMI 1640 medium (Gibco/Invitrogen Life technologies) supplemented with 10% fetal bovine serum (FBS, Gibco) and 10 μg/ml gentamycin (Gibco). Cells were maintained at 37° C. under 7% CO2. • 2. Cells were plated at 6×10^4/ml (0.2 ml/well; 12,000 cells/well) in 96-well microtiter plates (Falcon or Corning/Costar) and incubated at 37° C. overnight (18-24 hours). • 3. 2-5 μl of the test agent-[200 μg/ml stock in 20% DMSO/20 mM HEPES, pH 7.5 (Gibco)] was added to each well to achieve a final concentration of 2-5 μg/ml. Cells were incubated with the test compounds for 5 days at 37° C. • 4. Surviving cells were fixed with 50 μl 50% trichloroacetic acid (Sigma; 10% final concentration) for 1 hour at 4° C. • 5. Plates were rinsed twice with water (0.3 ml per wash using MRD8 robot), and allowed to dry. • 6. Sulforhodamine B (SRB) (Sigma; 0.4% in 1% acetic acid, 50 μl per well; MRD8 robot) was added and plates kept at room temperature for 10 minutes. • 7. Excess dye was removed by washing with 1% acetic acid (3 times, 0.3 ml per wash; MRD8 robot) and allowed to dry. • 8. The dye was solubilized in Tris base (Sigma; 10 mM, 150 μl per well). Plates were kept at room temperature for 30 minutes to allow the dye to diffuse. • 9. Absorbance was measured at 540 nm. • 10. The percentage of cells surviving drug treatment relative to control wells (no drug) was determined. • 11. The difference in % cell survival between the two cell lines was calculated. • 12. Compounds producing a difference score of >50 were considered to be selective for the p21-deficient cells and were evaluated further. Determination of Selectivity of Compounds for p21−/− Cells: • 1. 80S14 cells were cultured as described above. • 2. Cells were seeded in 96-well microtiter plates at 12,000 cells/well (either 0.15 ml/well of 8×10^4 cells/ml suspension, or 0.2 ml/well of 6×10^4 cells/ml suspension). Plates were incubated at 37° C. overnight (18-24 hours). • 3. Serial dilutions of the test agent were added to each well. Dilutions were prepared either in 40% DMSO/20% methanol/20 mM HEPES, pH 7.5 (Gibco) or directly in growth medium. One of two dose ranges were used: 5 pM to 50 μM or 170 pg/ml to 10 μg/ml. Cells were incubated with the test compounds for 5 days at 37° C. • 4. Surviving cells were fixed with 50 μl 50% trichloroacetic acid (Sigma; 10% final concentration) for 1 hour at 4° C. • 5. Plates were rinsed extensively in water, and allowed to dry. • 6. Sulforhodamine B (Sigma; 0.4% in 1% acetic acid, 70 μl per well) was added and plates kept at room temperature for 10 minutes. • 7. Excess dye was removed by washing 5 times with 1% acetic acid and plates were allowed to dry. • 8. The dye was solubilized in Tris base (Sigma; 10 mM, 150 μl per well). Plates were placed on a titer plate shaker (Lab Line Instruments) for 5 minutes to allow the dye to diffuse. • 9. Absorbance was measured at 560 nm.
10. The drug concentration which inhibits cell proliferation by 50% relative to untreated controls (IC50) was determined from cytotoxicity curves.

[2] = Cellular activity in LoVo cell, 4 days incubation, SRB assay
[3] = Cellular activity in 80S14 (p21-deficient) cells, SRB, class symbols, read-out: IC50 for 80S14
[4] = Homo sapiens, 80S14, 120 h, read-out: IC50 for 80S14 (μM)
[5] = LoVo colon cells, 4 days at 37° C., SRB
[6] = 80S14 (p21-deficient) cells, 5 days at 37° C., SRB, read-out: IC50 for 80S14
[7] = Homo sapiens, 120 h, 80S14 (p21-deficient) cells, 5 days at 37° C., SRB, read-out: IC50 for 80S14
[8] = Homo sapiens, 96 h, LoVo colon cells, 4 days at 37° C., SRB
[9] = Homo sapiens, Cellular activity in 80S14 (p21-deficient) cells, SRB, class symbols, read-out: IC50 for 80S14

3-(3,5-Dimethylphenyl)-7-[3-(2-ethyl-2H-tetrazol-5-yl)phenyllpyrazolo[1,5-a]pyrimidine [Example 384]
IC50 (LoVo Colon cell line; [2]): 0.1 to 1 µM | IC50 [1, 3]: 1 to 10 µM

3-Methyl-N-{^5-[3-(thien-2-ylcarbonyl)pyrazolo[1,5-a]pyrimidin-7-yl]thien-2-yl}butanamide [Example 240]
IC50 (LoVo Colon cell line; [2]): 1 to 20 µM | IC50 [1, 3]: 1 to 10 µM

7-{3-[2-(Cyclobutylmethyl)-2H-tetraazol-5-yl]phenyl}-3-(3,5-dimethylphenyl)pyrazolo[1,5-a]pyrimidine [Example 381]
IC50 (LoVo Colon cell line; [2]): 0.1 to 1 µM | IC50 [1, 3]: 1 to 10 µM

C#CCOC(=O)Nc1cccc(-c2ccnc3c(C(=O)c4cccs4)cnn23)c1 [Example 13, prop-2-ynyl 3-[3-(thien-2-ylcarbonyl)pyrazolo[1,5-a]pyrimidin-7-yl]phenylcarbamate]
IC50 (LoVo Colon cell line; Homo sapiens, LoVo, 96 h): 0.1 to 1 µM | IC50 [1, 4]: < 1 µM

O=C(Nc1cccc(-c2ccnc3c(C(=O)c4cccs4)cnn23)c1)OCCCl [Example 16, 2-chloroethyl 3-[3-(thien-2-ylcarbonyl)pyrazolo[1,5-a]pyrimidin-7-yl]phenylcarbamate]
IC50 (LoVo Colon cell line; Homo sapiens, LoVo, 96 h): < 0.1 µM | IC50 [1, 4]: < 1 µM

C=C(C)C(=O)Nc1cccc(-c2ccnc3c(C(=O)c4cccs4)cnn23)c1 [Example 36, 2-methyl-N-{3-[3-(thien-2-ylcarbonyl)pyrazolo[1,5-a]pyrimidin-7-yl]phenyl} acrylamide]
IC50 (LoVo Colon cell line; [5]): < 0.1 µM | IC50 [1, 6]: < 1 µM

CCCC(Cl)CC(=O)Nc1cccc(-c2ccnc3c(C(=O)c4cccs4)cnn23)c1 (centres unmarked) [Example 121, 3-chloro-N-{3-[3-(thien-2-ylcarbonyl)pyrazolo[1,5-a]pyrimidin-7-yl]phenyl}hexanamide]
IC50 [1, 7]: < 1 µM

CCCCCCCCCCC(=O)Nc1cccc(-c2ccnc3c(C(=O)c4cccs4)cnn23)c1 [Example 124, N-{3-[3-(thien-2-ylcarbonyl.)pyrazolo[1,5-a]pyrimidin-7-yl]phenyl}undecanamide]
IC50 [1, 6]: 10 to 50 µM

C/C=C/C(=O)Nc1cccc(-c2ccnc3c(C(=O)c4cccs4)cnn23)c1 [Example 129, (2E)-N-{3-[3-(thien-2-ylcarbonyl)pyrazolo[1,5-a]pyrimidin-7-yl]phenyl}but-2-enamide]
IC50 [1, 7]: 1 to 10 µM

O=C(c1cccs1)c1cnn2c(-c3cccc(NC(=O)N4CCOCC4)c3)ccnc12 [Example 131, N-{3-[3-(thien-2-ylcarbonyl)pyrazolo[1,5-a]pyrimidin-7-yl]phenyl}morpholine-4-carboxamide]
IC50 (LoVo Colon cell line; [8]): 0.1 to 1 µM | IC50 [1, 7]: 1 to 10 µM

CN(C)CCNC(=O)Nc1cccc(-c2ccnc3c(C(=O)c4cccs4)cnn23)c1 [Example 134, N-[2-(dimethylamino)ethyl]-N′-{3-[3-(thien-2-ylcarbonyl)pyrazolo[1,5-a]pyrimidin-7-yl]phenyl}urea]
IC50 [1, 7]: 10 to 50 µM

CCCCCNC(=O)Nc1cccc(-c2ccnc3c(C(=O)c4cccs4)cnn23)c1 [Example 138, N-pentyl-N′-{3-[3-(thien-2-ylcarbonyl)pyrazolo[1,5-a]pyrimidin-7-yl]phenyl}urea]
IC50 (LoVo Colon cell line; [8]): < 0.1 µM

COCCN(CCOC)C(=O)Nc1cccc(-c2ccnc3c(C(=O)c4cccs4)cnn23)c1 [Example 141, N,N-bis(2-methoxyethyl)-N′-{3-[3-(thien-2-ylcarbonyl)pyrazolo[1,5-a]pyrimidin-7-yl]phenyl}urea]
IC50 (LoVo Colon cell line; [8]): 1 to 20 µM

O=C(Nc1cccc(-c2ccnc3c(C(=O)c4cccs4)cnn23)c1)OCC1CCCCC1 [Example 148, Cyclohexylmethyl 3-[3-(thien-2-ylcarbonyl)pyrazolo[1,5-a]pyrimidin-7-yl]phenylcarbarmate]
IC50 (LoVo Colon cell line; [5]): < 0.1 µM | IC50 [1, 6]: < 1 µM

Cc1cc(-c2cccc(NC(=O)C3CO3)c2)n2ncc(C(=O)c3cccs3)c2n1 (centres unmarked) [Example 191, {3-[5-Methyl-3-(2-thienylcarbonyl)pyrazolo[1,5-a]pyrimidin-7-yl]phenyl}-2-oxiranecarboxamide]
IC50 [1, 3]: < 1 µM

CC(C)COC(=O)Nc1cccc(-c2ccnc3c(Br)cnn23)c1 [Example 225, Isobutyl 3-(3-bromopyrazolo[1,5-a]pyrimidin-7-vl)phenvlcarbamate]
IC50 [1, 3]: 10 to 50 µM

CC(C)NC(=S)Nc1ccc(Cl)c(-c2ccnc3c(C(=O)c4cccs4)cnn23)c1 [Example 237, N-{4-Chloro-3-[3-(thien-2-ylcarbonyl)pyrazolo[1,5-a]pyrimidin-7-yl]phenyl}-N′-isopropylthiourea]
IC50 (LoVo Colon cell line; Homo sapiens, 96 h, Cellular activity in LoVo cell, 4 days incubation, SRB assay): 0.1 to 1 µM | IC50 [1, 9]: 1 to 10 µM

O=C(Nc1cccc(-c2ccnc3c(C(=O)c4cccs4)cnn23)c1)NC1CCCCC1 [Example 249, N-Cyclohexyl-N′-{3-[3-(thien-2-ylcarbonyl)pyrazolo[1,5-a]pyrimidin-7-yl]phenyl}urea]
IC50 [1, 9]: < 1 µM

CN1CCC(C(=O)Nc2cccc(-c3ccnc4c(C(=O)c5cccs5)cnn34)c2)CC1 [Example 307, 1-Methyl-N-{3-[3-(thien-2-ylcarbonyl)pyrazolo[1,5-a]pyrimidin-7-yl]phenyl}piperidine-4-carboxamide]
IC50 [1, 9]: 10 to 50 µM

CC(CCNc1cccc(-c2ccnc3c(C(=O)c4cccs4)cnn23)c1)CC(C)(C)C (centres unmarked) [Example 321, Thien-2-yl(7-{3-[(3,5,5-trimethylhexyl]amino]phenyl}pyrazolo[1,5-a]pyrimidin-3-yl](thien-2-yl)methanone]
IC50 (LoVo Colon cell line; [2]): 0.1 to 1 µM | IC50 [1, 3]: 1 to 10 µM

O=C(c1cccs1)c1cnn2c(-c3cccc(NCC4CC=CCC4)c3)ccnc12 (centres unmarked) [Example 324, (7-{3-[(cyclohex-3-en-1-ylmethyl)emnino]phenyl}pyrazolo[1,5-a]pyrimidin-3-yl)-(thien-2-yl)-methanone]
IC50 (LoVo Colon cell line; [2]): < 0.1 µM | IC50 [1, 3]: < 1 µM

O=C(CCc1cccnc1)Nc1cccc(-c2ccnc3c(C(=O)c4cccs4)cnn23)c1 [Example 336, 3-Pyridin-3-yl-N-{3-[3-(thien-2-ylcarbonyl)pyrazolo [1,5-a]pyrimidin-7-yl]phenyl}propanamide]
IC50 [1, 9]: 1 to 10 µM

(7-{3-[1-(Cyclobutylmethyl)-1H-pyrazol-3-yl]phenyl}pyrazolo[1,5-a]pyrimidin-3-yl)(thien-2-yl)methanone [Example 404]
IC50 (LoVo Colon cell line; [2]): < 0.1 µM | IC50 [1, 3]: < 1 µM

N,N′-Diethyl-3-[3-(2-thienylcarbonyl)-pyrazolo[1,5-a]pyrimidin-7-yl]-benzamide [Example 181]
IC50 [1, 3]: 10 to 50 µM

N-{3-[3-(2-Thienylcarbonyl)pyrazolo[1,5-a]pyrimidin-7-yl]phenyl}-3-trifluoromethyl)benzamide [Example 193]
IC50 [1, 3]: < 1 µM

tert-Butyl 4-[({3-[3-[3-(thien-2-ylcarbonyl)pyrazolo[1,5-a]pyrimidin-7-yl]phenyl}amino)carbonyl]piperidine-1-carboxylate [Example 295]
IC50 [1, 3]: 1 to 10 µM
